# In patent publication US10174013B2, “Benzimidazole derivatives as kinase inhibitors” (SELVITA S.A., priority 2012, dated 2019):
# Where a name gives a salt, the structure may show the parent alone. Read-outs that look alike come from different tables or passages of the source.
# Assays:
# [1] = system: MOLM16 cells; assay: Growth inhibition, MTS assay, MOLM16; format: cell-based, Human; details: MTS cell viability, read-out: MOLM 16 ED50
# [2] = system: MOLM13 cells; assay: Growth inhibition, MTS assay, MOLM13; format: cell-based, Human; details: 72 hours, MTS cell viability, read-out: MOLM 13 ED50
# From the text: (§1) The following cell lines, were obtained and used in tests as outlined below: • Human myelomonocytic, biphenotypic leukemia MV4-11 cells (harboring a Flt3-ITD mutation); • Human Acute Myeloid Leukemia MOLM16 cells; • Human Acute Myeloid Leukemia MOLM13 cells (harboring a Flt3-ITD mutation); • Human Myeloid Leukemia KG-1 cells; • Human erythroleukemia HEL92 cells; • Human mantle cell lymphoma Jeko-1 cells; • Human hepatocellular carcinoma HepG2 cells; and • Human colon adenocarcinoma SW-480 cells.
# (§2) The assays were carried out according to the following protocol, which is described as an example for the MV4-11 cells:
# (§3) Ten thousand MV4-11 cells were inoculated into each well of a 96-well microplate (manufactured by Corning Corp.) using Iscove's MDM medium (culture medium) containing 10% fetal calf serum (FCS). The same day, a dimethyl sulfoxide (DMSO) solution of each test compound prepared in a concentration of 10 mmol/L was further diluted with DMSO to the desired concentrations (0.1, 0.5, 1, 2.5, 5 and 10 micromol/L), and the diluted solution was added to each well. The individual wells were further cultured in 5% carbon dioxide at 37° C. for 72 hours. […] Briefly, 10 μl MTS (3-(4,5-Dimethyl-2-thiazolyl)-5-(carboxymethoxyphenyl)-2-(4-sulfophenyl)-2H-tetrazolium was added to each well, and culturing was performed in 5% carbon dioxide at 37° C. for 2 hours. After this incubation and using a microplate spectrophotometer (Synergy 2 multi-mode microplate reader (BioTek)), the absorbance of each well was measured at 490 nm. The value for cells not incubated with a test compound was designated as 100%. By comparing these values with the absorbance difference obtained at the well in which each test compound was added, the cell viability (% viability) after treatment with the test compound was calculated.
# [3] = target: hERG potassium channel (Homo sapiens (Human), UniProt Q12809); assay: hERG automated patch clamp assay (QPatch HT)
# hERG potassium channel, sequence (Q12809 whole entry): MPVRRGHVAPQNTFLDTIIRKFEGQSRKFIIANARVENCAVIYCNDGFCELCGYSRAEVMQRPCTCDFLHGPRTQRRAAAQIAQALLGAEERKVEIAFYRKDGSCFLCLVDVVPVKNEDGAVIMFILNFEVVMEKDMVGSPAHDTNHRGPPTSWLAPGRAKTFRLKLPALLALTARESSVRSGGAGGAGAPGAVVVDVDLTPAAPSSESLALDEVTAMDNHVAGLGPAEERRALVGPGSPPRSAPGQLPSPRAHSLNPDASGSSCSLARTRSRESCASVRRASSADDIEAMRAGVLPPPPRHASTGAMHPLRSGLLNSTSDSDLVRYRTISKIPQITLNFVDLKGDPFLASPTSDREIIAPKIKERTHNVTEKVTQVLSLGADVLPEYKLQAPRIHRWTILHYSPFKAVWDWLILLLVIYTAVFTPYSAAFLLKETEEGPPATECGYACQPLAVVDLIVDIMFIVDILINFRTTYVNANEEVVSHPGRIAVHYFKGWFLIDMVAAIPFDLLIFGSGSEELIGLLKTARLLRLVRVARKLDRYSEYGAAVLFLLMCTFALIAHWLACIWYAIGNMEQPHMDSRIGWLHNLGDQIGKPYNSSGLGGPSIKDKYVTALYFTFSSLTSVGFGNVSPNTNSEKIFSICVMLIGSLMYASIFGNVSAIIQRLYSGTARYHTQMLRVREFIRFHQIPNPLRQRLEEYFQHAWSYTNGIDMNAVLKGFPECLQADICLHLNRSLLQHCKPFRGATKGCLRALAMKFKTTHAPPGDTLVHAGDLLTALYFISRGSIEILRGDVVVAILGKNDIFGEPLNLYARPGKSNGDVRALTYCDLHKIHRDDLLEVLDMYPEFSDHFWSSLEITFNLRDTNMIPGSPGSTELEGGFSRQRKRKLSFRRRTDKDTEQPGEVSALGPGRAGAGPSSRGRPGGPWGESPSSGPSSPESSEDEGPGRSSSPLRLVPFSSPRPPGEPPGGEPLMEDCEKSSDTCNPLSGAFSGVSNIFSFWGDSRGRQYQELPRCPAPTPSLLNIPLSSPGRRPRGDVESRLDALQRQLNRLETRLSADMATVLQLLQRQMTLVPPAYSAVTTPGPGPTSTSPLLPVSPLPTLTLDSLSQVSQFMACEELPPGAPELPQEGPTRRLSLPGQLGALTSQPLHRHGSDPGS
# Summary of the method: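 Automated whole-cell patch clamp of hERG current in mammalian cells at room temperature. Compounds applied at 0.1, 1, 3, 10 and 30 μM, 3 min per concentration, n≥2 cells each.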
# [4] = system: MV4-11 cells; assay: Growth inhibition, MTS assay, MV4-11; format: cell-based, Human; details: MTS cell viability, read-out: MV4-11 ED50
# [5] = target: Pim-2 (Homo sapiens (Human), UniProt Q9P1W9); assay: ADP-Glo Kinase Assay, Pim-2; format: biochemical; details: 1 μM compound; for inhibition at 1 µM: read-out: Pim-2 % INH (1 μM)
# Pim-2, sequence (Q9P1W9 whole entry): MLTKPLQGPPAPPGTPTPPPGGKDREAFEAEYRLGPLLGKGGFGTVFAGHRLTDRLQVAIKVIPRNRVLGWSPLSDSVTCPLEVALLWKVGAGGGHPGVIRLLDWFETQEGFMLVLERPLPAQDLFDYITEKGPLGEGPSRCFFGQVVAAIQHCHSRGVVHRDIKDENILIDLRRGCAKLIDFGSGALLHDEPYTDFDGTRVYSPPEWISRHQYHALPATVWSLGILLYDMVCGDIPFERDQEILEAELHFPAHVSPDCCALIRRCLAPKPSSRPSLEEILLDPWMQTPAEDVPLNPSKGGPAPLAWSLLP
# Summary of the method: (§4)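 Compounds were diluted in assay buffer to 1000 nM and incubated with kinase, substrate and ATP at apparent Km. Remaining ATP was depleted, ADP converted to ATP and detected by luciferase; percent inhibition came from normalized luminescence.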
# [6] = target: CYP3A4 (Homo sapiens (Human), UniProt P08684); assay: Cytochrome P450 inhibition, fluorescence, CYP3A4; format: in vitro ADME; details: recombinant CYP3A4, fluorescence detection; read-out: CYP inhibition (CYP 3A4 screening, IC50 class)
# CYP3A4, sequence (P08684 whole entry): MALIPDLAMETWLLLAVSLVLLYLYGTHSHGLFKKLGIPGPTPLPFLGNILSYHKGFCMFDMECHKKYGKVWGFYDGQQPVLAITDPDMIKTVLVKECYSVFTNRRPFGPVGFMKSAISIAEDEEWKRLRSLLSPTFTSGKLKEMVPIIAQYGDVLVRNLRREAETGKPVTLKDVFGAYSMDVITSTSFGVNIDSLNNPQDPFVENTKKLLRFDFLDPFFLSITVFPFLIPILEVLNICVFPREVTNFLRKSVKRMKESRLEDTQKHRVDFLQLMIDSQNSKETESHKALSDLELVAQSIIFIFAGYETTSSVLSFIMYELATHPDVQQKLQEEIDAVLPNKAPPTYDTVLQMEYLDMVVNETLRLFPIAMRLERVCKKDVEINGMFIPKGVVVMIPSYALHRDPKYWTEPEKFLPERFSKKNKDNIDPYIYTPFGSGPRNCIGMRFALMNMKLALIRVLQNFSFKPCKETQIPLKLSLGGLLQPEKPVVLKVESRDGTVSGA
# Summary of the method: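 Recombinant human CYP3A4 was incubated at 37 °C for 30–45 min with a fluorogenic probe substrate near apparent Km and serially diluted compound, after ≥10 min preincubation with an NADPH-regenerating system. Fluorescence was read after stopping, with compound autofluorescence measured beforehand and no-inhibitor and pre-stopped blanks as controls.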
# [7] = target: Pim-3 (Homo sapiens (Human), UniProt Q86V86); assay: ADP-Glo Kinase Assay, Pim-3; format: biochemical; details: 1 μM compound; for inhibition at 1 µM: read-out: Pim-3 % INH (1 μM)
# Summary of the method: as §4
# [8] = system: KG-1 cells; assay: Growth inhibition, MTS assay, KG-1; format: cell-based, Human; details: 72 hours, MTS cell viability
# From the text: as §1, §2, §3
SMILES,"IC50 ([1]; Homo sapiens, MOLM16, 72 hours)","IC50 ([2]; Homo sapiens, MOLM-13)","IC50 ([3]; human, 3 min)","IC50 ([4]; Homo sapiens, MV4-11, 72 hours)",inhibition at 1 µM [5],IC50 [6],inhibition at 1 µM [7],IC50 ([1]; 72 hours),IC50 [2],IC50 [3],IC50 ([4]; 72 hours),KG-1 ED50 [8],Pim-2 % INH (1 μM) [5],Pim-3 % INH (1 μM) [7],"IC50 ([1]; Homo sapiens, MOLM16, 72 h)","IC50 ([4]; Homo sapiens, MV4-11, 72 h)"
"CCn1c(N2CCNCC2)nc2c([N+](=O)[O-])c(Br)c(Br)cc21 [Example 1A, 5,6-dibromo-1-ethyl-4-nitro-2-(piperazin-1-yl)-1H-1,3-benzodiazole hydrochloride]",500 nM,700 nM,1600 nM,500 nM,22%,3300 to 10000 nM,65%,,,,,,,,,
CC(C)n1c(N2CCNC[C@H]2C)nc2c([N+](=O)[O-])c(Br)c(Br)cc21 [Example 1AX],,,,,,1100 to 3300 nM,,20 nM,60 nM,1230 nM,100 nM,120 nM,77%,95%,,
CC(C)n1c(N2CC[C@@H](N)C2)nc2c(C#N)c(Br)c(Br)cc21 [Example 1BI],,3250 nM,5170 nM,,82%,1100 to 3300 nM,95%,,,,,90 nM,,,80 nM,600 nM
CCCn1c(N2CCNCC2)nc2c([N+](=O)[O-])c(Br)c(Br)cc21 [Example 1M],,,,,,1100 to 3300 nM,,,,520 nM,600 nM,,44%,73%,,
"CC(C)n1c(N2CCNCC2)nc2c([N+](=O)[O-])c(Br)c(Br)cc21 [Example 2A, 5,6-dibromo-4-nitro-2-(piperazin-1-yl)-1-(propan-2-yl)-1H-1,3-benzodiazole hydrochloride]",,250 nM,,,49%,3300 to 10000 nM,89%,,,3060 nM,,630 nM,,,140 nM,300 nM
"Cl.O=[N+]([O-])c1c(Br)c(Br)cc2c1nc(N1CCNCC1)n2C1CCCC1 [Example 2D, 5,6-dibromo-1-cyclopentyl-4-nitro-2-(piperazin-1-yl)-1H-1,3-benzodiazole hydrochloride]",,,,,53%,1100 to 3300 nM,> 95%,,,1600 nM,,,,,,600 nM
"CC(C)n1c(C2CCNCC2)nc2c([N+](=O)[O-])c(Br)c(Br)cc21 [Example 26A, 5,6-dibromo-4-nitro-2-(piperidin-4-yl)-1-(propan-2-yl)-1H-1,3-benzodiazole]",,320 nM,,,68%,> 10000 nM,90%,,,,,470 nM,,,220 nM,200 nM
